For data set [1], the target named is T1, scavenger receptor A (SR-A, CD204) (Mus musculus, UniProt P30204).
T1 construct: endogenous in cells; host or cells: RAW264.7 mouse macrophages
T1 sequence (P30204 1-458): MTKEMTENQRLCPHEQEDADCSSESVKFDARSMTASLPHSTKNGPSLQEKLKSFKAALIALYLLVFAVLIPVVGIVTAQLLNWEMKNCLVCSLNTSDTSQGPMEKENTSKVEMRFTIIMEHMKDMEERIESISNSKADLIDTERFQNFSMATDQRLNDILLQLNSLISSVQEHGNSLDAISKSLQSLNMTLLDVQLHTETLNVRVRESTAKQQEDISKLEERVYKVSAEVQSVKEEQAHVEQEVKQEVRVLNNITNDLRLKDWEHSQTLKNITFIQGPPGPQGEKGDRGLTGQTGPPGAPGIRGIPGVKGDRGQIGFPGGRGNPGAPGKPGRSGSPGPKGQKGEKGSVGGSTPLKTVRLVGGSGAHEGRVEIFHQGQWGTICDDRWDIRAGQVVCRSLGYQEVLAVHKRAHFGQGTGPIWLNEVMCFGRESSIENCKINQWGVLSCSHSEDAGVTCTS
In words: Inhibition of CypHer5E-AcLDL uptake by known SR-A ligands. It is filed as cell-based. The settings on record: RAW264.7 mouse macrophages, FIG. 7. The method, then: RAW264.7 Mouse Macrophages, J774A.1 Mouse Macrophages, U-2 OS Human Osteosarcoma Cells were seeded in standard cell culture flasks and cultured in Dulbecco's Modified Eagle Medium (DMEM) with 10% fetal bovine serum (FBS) until about 70% to about 80% confluent. On the day of the assay, the cells were washed twice with serum-free DMEM, and incubated for 30 minutes in cell culture incubator in DMEM containing 1 μM Cell Tracker Green dye. After staining with Cell Tracker Green dye, cells were washed three times with serum-free DMEM, scraped from tissue culture flask, and resuspended in DMEM with 12.5% Fetal Bovine Lipoprotein Deficient Serum (FBLDS) at 250,000 cells/ml.
80 μl of Cell Tracker Green-labeled cells at 250,000 cells/ml were added to each well of ViewPlate 96-well plate in DMEM with 12.5% Fetal Bovine Lipoprotein Deficient Serum (FBLDS). For inhibitor studies, 10 μl of 10-fold stock of the inhibitor in DMEM containing 10% dimethyl sulfoxide (DMSO) were added to each well. 10 μl of DMEM containing 10% DMSO were added for control wells. Cells were pre-incubated for 30 minutes at 37° C. in a cell culture incubator in the presence of the inhibitor before addition of labeled AcLDL. At the end of pre-incubation period, 10 μl of 100 μg/ml CypHer5E-AcLdL solution were added to each well. The incubation continued for another 2 to 18 hours at 37° C. in cell culture incubator before imaging. The Dil AcLDL complex assay was identical to CypHer5E-AcLDL assay except that Dil AcLDL complex was added to cells in place of CypHer5E-AcLDL conjugate.
Following incubation, images of CypHer5E-AcLDL uptake were acquired on IN Cell Analyzer 1000 or 3000 (GE Healthcare) using a 10× or 20× objective and FITC/Cy5 excitation/emission filters. Analysis was performed using Granularity Analysis and Object Intensity Analysis Modules within IN Cell Analyzer system software suite or using Developer™ Image Analysis software.

Data set [2] can be described thus: pH dependence of dye fluorescence. It is filed as physicochemical. From the text: The assays employ a pH-sensing cyanine dye, which is minimally fluorescent at neutral pH outside the cell, but highly fluorescent in the acidic environment (pKa ˜7.3; excitation peak 650 nm/emission peak 670 nm). In most instances, the lipoproteins or modified lipoproteins are taken up by cell-surface receptors through the process of receptor-mediated endocytosis. Once internalized, lipoproteins are transported to highly acidic vesicles. When labeled with CypHer5E dye, lipoproteins are minimally fluorescent at neutral pH outside the cell, but highly fluorescent in the acidic environment of the uptake vesicle. This translates into high signal-to-noise ratio compared to traditional dyes that are equally fluorescent inside or outside the cell. Additionally, the disclosed methods eliminate washing steps required for removal of excess of labeled lipoprotein in the media at the end of the protocol. […]
CypHer5E dye is 3 to 20 times more fluorescent in the acidic environment of the intracellular vesicles than at neutral pH outside the cell (pKa ˜7.3; excitation peak 650 nm/emission peak 670 nm). CypHer5E dye fluorescence is enhanced by the acidic conditions of lipoprotein-containing intracellular vesicles after receptor-mediated lipoprotein after the CypHer5E-AcLDL is internalized.

One may read the pKa as the negative logarithm of the acid dissociation constant. Lower therefore signals a group that gives up its proton readily.

For the compound Dextran Sulfate MW 500,000 [Dex SO4], the “inhibition of pH-sensing cyanine dye conjugate uptake (in words)” value in data set [1] is “inhibition”. Take `CC1(C)C(/C=C/C=C/C=C2/Nc3ccc(S(=O)(=O)O)cc3C2(C)CCCCCC(=O)O)=[N+](CCCCS(=O)(=O)[O-])c2ccc(S(=O)(=O)O)cc21` (stereo not shown) [CypHer5E, 2-{[1E,3E,5E)-5-(3-methyl-3-(5-carboxypentyl)-5-sulfo-1,3-dihydro-2H-indol-2-ylidene]-1,3-pentadienyl}-3,3-dimethyl-5-sulfo-1-(4-sulfobutyl)-3H-indolium]: the pKa in data set [2] was about 7.3. As for “Polyinosinic acid potassium salt [poly I]”, the “inhibition of pH-sensing cyanine dye conjugate uptake (in words)” value in data set [1] is “inhibition”. The same measure, in the same setting: with “Polyguanylic acid potassium salt [poly G]” the entry was “inhibition”.

Values taken from patent publication US7846735B2, “Compositions and methods for lipoprotein uptake assays” (General Electric Company, priority 2006, dated 2010).
